Data as given in patent US6837977B1, “Capillary electrophoresis method for screening for affinity ligands using a detectable competitive ligand” (Cetek Corporation, priority 1999, dated 2005).

Tests used:
thrombin [1] = biological target: T1, thrombin (Homo sapiens, UniProt P00734); conditions: binding to thrombin; stated for known ligands; cited from earlier work
thrombin [2] = biological target: T1, thrombin; assay: competitive-binding capillary electrophoresis screening with fluorescently labeled competitive ligand (FCL); conditions: for FCL/TG complex peak: FIG. 1
Experimental: Also prepared is 100 nM of a fluorescently labeled, tight-binding competitive ligand, single-stranded (ss) DNA oligonucleotide 5′-fluorescein-GGTTGGTGTGGTTGG-3′ (Kd=3×10^−9 M; hereinafter “FCL”). The mixture of target and candidate ligand (TG/LG) is first injected into the CE instrument for about ten (10) seconds to give a first plug, followed by a 10-second injection of FCL as the second plug.
Voltage of about 20 kV is applied to initiate electrophoresis, and the unbound competitive ligand (FCL) and bound FCL/TG complex peaks are monitored during CE by means of laser-induced fluorescence and a fluorescence detector positioned at a detection point along the capillary.
Here the thrombin target (TG) is incubated, prior to CE, for five minutes with samples containing hirugen and hirulog-1 at different concentrations. Each of these target/sample mixtures is subjected to a CE screening run, as follows. A plug of target/sample mixture is pressure-injected into the CE instrument for 10 seconds to give a first-injected plug. A second injection plug of 100 nM FCL is then injected for 10 seconds, and then voltage of about 20 kV is applied to start electrophoresis. The CE migration of the FCL and FCL/TG complex are monitored by way of laser-induced fluorescence. Again, the FCL has a higher electrophoretic mobility than the TG, so that the unbound FCL peak appears before that of the FCL/TG complex (see FIG. 2).

## 5′-fluorescein-GGTTGGTGTGGTTGG-3′ [FCL]
Thrombin [1]
  Kd: 3 nM

## D-Phe-Pro-Arg-Pro-(Gly)4-Asn-Gly-Asp-Phe-Glu-Glu-Ile-Pro-Glu-Glu-Tyr-Leu [hirulog-1]
Thrombin [1]
  Kd: ~2 nM
Thrombin [2]; 50 nM hirulog-1 in sample, equivalent to 50 nM thrombin, 100 nM FCL
  FCL/TG complex peak: complete disappearance
Thrombin [2]; hirulog-1 in samples also containing hirugen, 100 nM FCL, FIG. 2
  FCL/TG peak: decrease
Thrombin [2]; increasing concentrations of hirulog-1, 50 nM thrombin pre-incubated 5 min, 100 nM FCL, 20 kV
  FCL/TG complex peak: reduced
Thrombin [2]; samples containing hirugen and hirulog-1, FIG. 2
  molar excess of weak-binding hirugen at which the hirulog-1 signal is detectable: up to 1,000 fold

## Gly-54-Leu-65 carboxyterminal dodecapeptide of hirudin with sulfated tyrosine [hirugen]
Thrombin [1]
  Kd: 150 nM
Thrombin [2]; pre-incubation of thrombin with 10,000 nM hirugen, 100 nM FCL, FIG. 2
  change in competitive ligand's (FCL's) CE profile: no difference
